The record followed here is patent US20100292229A1, “TRYPHOSTIN-ANALOGS FOR THE TREATMENT OF CELL PROLIFERATIVE DISEASES” (The Board of Regents of the University of Texas System, priority 2006, published 2010).

For experiment [1], the target named is T1, BCR-ABL (Homo sapiens, UniProt P00519).
T1 construct: The BCR-ABL expressing CML cell line (K562); endogenous in cells; host or cells: K562; the other entry of the earlier key: BCR (P11274, Breakpoint cluster region protein)
Briefly: BCR-ABL protein level and distribution in K562 cells. In kind it is cell-based. How it is done: Top: The BCR-ABL expressing CML cell line (K562) was incubated with 5 μM Degrasyn for the interval noted before cells were lysed and protein extracts were analyzed for BCR-ABL protein (using anti-Abl) levels by immunoblotting. The blot was stripped and reprobed for actin as a protein loading control.
Bottom: RNA from cells treated as described above was isolated (TRIzol Reagent) and used as a template to generate cDNA. This material was then used to prime a real-time PCR reaction for bcr-abl and ubiquitin (Ub) transcripts. The values are reported in terms of the ratio of bcr-abl to Ub.
K562 cells were treated with Degrasyn (2 h, 5 μM) before cells were lysates were prepared and analyzed for BCR-ABL, c-Abl and BCR protein levels. Actin was probed on the stripped blot to control for protein loading.
K562 cells were treated with nothing (Control), vehicle (DMSO; 0.1%), 5 μM Degrasyn or 5 μM geldanamycin for the interval indicated. Cell lysates were prepared and BCR-ABL, HSP70 and Actin were subjected to immunoblotting.
K562 cells were treated with […] Degrasyn for 1 to 2 h before equal protein cell extracts were immunoblotted for BCR-ABL, c-Abl, BCR, HSP90, HSP70 and actin.
K562 cells were treated with Degrasyn (5 μM) for the interval indicated before cell lysates were prepared (Soluble Fraction; prepared in buffer containing 1% NP-40, 0.5% Na-deoxycholate, 0.1% Na-dodecyl sulfate). […]
Western Blot analysis. Cells were harvested, washed twice in cold 1×PBS and lysed in modified RIPA lysis buffer (150 mM NaCl, 1% NP-40, 0.5% Na-deoxycholate [DOC], 0.1% Na-dodecyl sulfate [SDS], 50 mM Tris-HCl (pH 7.5), 1 mM EDTA, 1 mM NaF, 2 mM Na-vanadate, with protease inhibitors (1 mM PMSF, 1 mM benzamidine, 10 μg/ml aprotinin, 10 μg/ml leupeptin) on ice for 30 min. The lysed cells were centrifuged at 13,000 rpm for 30 min and the supernatant collected. The protein concentration of the cell lysate was determined by the Bradford Protein Assay. Fifty to 60 μg of protein were resolved in a 10% SDS-PAGE, and transferred to a PVDF membrane. […]
Real-Time Quantitative TR-PCR analysis of bcr/abl mRNA. […]

Experiment [2] has as its target T2, BCR-ABL (T315I) (Homo sapiens, UniProt P00519, T315I).
T2 construct: endogenous in cells; host or cells: BV-173R; the other entry of the earlier key: BCR (P11274, Breakpoint cluster region protein)
In words: pBCR-ABL and BCR-ABL immunoblot in BV-173R cells. In kind it is cell-based. Further details: dose or concentration left out as unconfirmed. Particulars: 1 h. How it is done:
(§1) Actin was probed as protein loading control.
(§2) Western Blot analysis. […] Western blotting was performed using specific primary antibodies Peroxidase-conjugated affiniPure anti-Mouse Anti-Rabbit secondary antibodies (Jackson Immunoresearch Laboratories, West Grove, Pa.). The proteins were visualized with ECL Plus reagents (Amersham Biosciences).
A general note: In western blotting, separated proteins are transferred to a membrane and probed.

Experiment [3] has as its system CML cells expressing the T315I mutant BCR-ABL. In words: Clonal outgrowth of CML cells from imatinib resistant patients. In kind it is cell-based, human. Conditions: cells of 2 patients that failed imatinib therapy. The text has this: Isolation of cellular fractions from clinical specimens. Mononuclear cells were isolated from peripheral blood or bone marrow of imatinib-resistant CML patients after informed consent was obtained for a protocol reviewed and approved by the Institutional Review Board of M.D. Anderson Cancer Center. Cells were purified on Ficoll-Hypaque gradients.

The target in experiment [4] is T3, w/t BCR-ABL (Homo sapiens, UniProt P00519).
T3 construct: BV-173, a lymphoid CML cell line expressing w/t BCR-ABL; endogenous in cells; host or cells: BV-173; the other entry of the earlier key: BCR (P11274, Breakpoint cluster region protein)
Briefly: pBCR-ABL and BCR-ABL immunoblot in BV-173 cells. In kind it is cell-based. Further details: dose or concentration left out as unconfirmed. Conditions: 1 h. How it is done: as §1, §2

For experiment [5], the system named is c-myc and activated Stat3. In words: c-myc, pY-Stat3, Stat3, p53, p-MAPK immunoblot in A375 melanoma cells. In kind it is cell-based. Particulars: A375, 2 h. How it is done:
A375 melanoma cells were pretreated with Degrasyn at the concentration noted for 2 h before the addition of 10 ng/ml IL-6 for 15 min. Cell lysates were prepared and equal protein aliquots were resolved by SDS-PAGE and immunoblotted for c-myc, p53 (wild-type), activated Stat3 (pY-Stat3), Stat3 and activated Erk1/2 kinase (p-MAPK).
Western Blot analysis. Cells were harvested, washed twice in cold 1×PBS and lysed in modified RIPA lysis buffer (150 mM NaCl, 1% NP-40, 0.5% Na-deoxycholate [DOC], 0.1% Na-dodecyl sulfate [SDS], 50 mM Tris-HCl (pH 7.5), 1 mM EDTA, 1 mM NaF, 2 mM Na-vanadate, with protease inhibitors (1 mM PMSF, 1 mM benzamidine, 10 μg/ml aprotinin, 10 μg/ml leupeptin) on ice for 30 min. The lysed cells were centrifuged at 13,000 rpm for 30 min and the supernatant collected. The protein concentration of the cell lysate was determined by the Bradford Protein Assay. Fifty to 60 μg of protein were resolved in a 10% SDS-PAGE, and transferred to a PVDF membrane. Western blotting was performed using specific primary antibodies Peroxidase-conjugated affiniPure anti-Mouse Anti-Rabbit secondary antibodies (Jackson Immunoresearch Laboratories, West Grove, Pa.). The proteins were visualized with ECL Plus reagents (Amersham Biosciences).

`CCC[C@H](NC(=O)/C(C#N)=C/c1cccc(Br)n1)c1ccccc1` [Degrasyn]: in experiment [1] (5 μM), the “Cytoplasmic staining of BCR-ABL (microscopy)” value is recorded as “reduced cytoplasmic staining of BCR-ABL”. Besides, in experiment [1] (5 µM, 1 to 2 h), the “BCR-ABL, c-Abl, BCR, HSP90, HSP70 levels” value was “down-regulated”. Further, the “BCR-ABL, c-Abl and BCR protein levels” value in experiment [1] (2 h, 5 μM) was “reduced BCR-ABL protein levels but had minimal effects on c-Abl and BCR”. Further, the “pBCR-ABL and BCR-ABL protein levels, BV-173R” value in experiment [2] was “reduced BCR-ABL protein levels in both w/t and mutant BCR-ABL expressing cells”. For the same molecule, the “Colony formation of leukemic cells” value in experiment [3] is “more effective than imatinib in suppressing colony formation”. The “pBCR-ABL and BCR-ABL protein levels, BV-173” value in experiment [4] was “reduced BCR-ABL protein levels in both w/t and mutant BCR-ABL expressing cells”. For the same molecule, the “c-myc protein levels and Stat3 activation” value in experiment [5] (then IL-6 10 ng/ml 15 min) is recorded as “reduced c-myc protein levels suppressed Stat3 activation at higher concentrations”. Further, in experiment [5] (then IL-6 15 min), the “Stat3, p-MAPK and p53 levels” value is listed as “not affected”.
